# In publication PMC5451423, “Pharmacokinetic Evaluation of Empagliflozin in Healthy Egyptian Volunteers Using LC-MS/MS and Comparison with Other Ethnic Populations” (Scientific Reports, 2017):
# Like-named read-outs stand apart in the source and are kept apart here.
# Assays:
# [1] = Single oral dose pharmacokinetic study of EG in healthy Egyptian volunteers (LC-MS/MS of plasma); format: in vivo, human; conditions: one JARDIANCE tablet 25 mg EG; for Cmax, Mean ± S.D. (% C.V.): n=6, fasting, single oral dose
# Protocol: Each EG calibrator and quality control (QC) plasma sample (980 µL) was spiked with 20 µL containing the appropriate amount of EG in acetonitrile prepared with dilution of EG working solution. All samples including the volunteers’ plasma samples (1 mL plasma) were spiked with 100 µL of IS that contained 100 ng of DG followed by vortexing for 20 sec. Five milliliters of TBME were added, vortexed for 1 min, and centrifuged for 30 min at 6000 rpm. Four milliliters of the organic layer were vacuum evaporated until dryness at 60 °C. Three hundred microliters of acetonitrile were added to reconstitute the resulting residue and vortexed for 3 min. Ten microliters of the reconstituted solution were injected into the LC-MS/MS system.
# The pharmacokinetic parameters of EG were studied in healthy human subjects according to the ethical regulations of World Medical Association Declaration of Helsinki (October 1996) and the International Conference of Harmonization Tripartite Guideline for Good Clinical Practice. Written informed consent was provided by each volunteer before enrollment. Approval of the study by the ethical committee was mandatory according to the Egyptian ministry of Health and The British University in Egypt research ethics guidelines. The experimental protocols were approved by the ethics committee of the Faculty of Pharmacy, The British University in Egypt. The clinical trial protocol was registered in a publically accessible primary register that participates in the WHO International Clinical Trial Registry Platform (ClinicalTrials.gov, 16/02/2017, ID: NCT03059056). Good health of the human subjects was confirmed with a complete medical history and physical examination. Fasting of all volunteers eliminated the possible interaction from high fat meals. The evaluation of safety of the study was based on monitoring of blood glucose level, vital signs, pulse rate, monitoring of adverse events, and physical examination. Samples from 6 healthy, adult, male, Egyptian volunteers (age: 22–33 years, average weight: 77.8 kg, average body mass index (BMI): 29.2) were collected at 0, 0.5, 1, 1.5, 2, 3, 4, 8 and 12 hrs, transferred to heparinized centrifuge tubes and analyzed with the proposed method after single oral dose administration of one JARDIANCE tablet nominally containing 25 mg EG. Blood samples (3 mL of each sample) were centrifuged at 3000 rpm for 5 min, 1 mL of the plasma was separated and spiked with 100 µL (equivalent to 100 ng) of IS working solution, and then the procedure discussed under (Sample preparation) was applied. The main pharmacokinetic parameters of the study, Cmax, Tmax, t1/2, elimination rate constant, AUC0-t and AUC0-inf, were estimated using validated Excel software. Blood glucose level was determined for all volunteers at 0 and 1.5 hrs to monitor any hypoglycemic effect. The study was conducted as per FDA guidelines.
# [2] = Monitoring of blood glucose level of volunteers (hypoglycemic effect); format: in vivo, human; conditions: healthy Egyptian volunteers, 25 mg EG single oral dose, determined at 0 and 1.5 hrs
# Description: The pharmacokinetic parameters of EG were studied in healthy human subjects according to the ethical regulations of World Medical Association Declaration of Helsinki (October 1996) and the International Conference of Harmonization Tripartite Guideline for Good Clinical Practice. Written informed consent was provided by each volunteer before enrollment. Approval of the study by the ethical committee was mandatory according to the Egyptian ministry of Health and The British University in Egypt research ethics guidelines. The experimental protocols were approved by the ethics committee of the Faculty of Pharmacy, The British University in Egypt. The clinical trial protocol was registered in a publically accessible primary register that participates in the WHO International Clinical Trial Registry Platform (ClinicalTrials.gov, 16/02/2017, ID: NCT03059056). […] Samples from 6 healthy, adult, male, Egyptian volunteers (age: 22–33 years, average weight: 77.8 kg, average body mass index (BMI): 29.2) were collected at 0, 0.5, 1, 1.5, 2, 3, 4, 8 and 12 hrs, transferred to heparinized centrifuge tubes and analyzed with the proposed method after single oral dose administration of one JARDIANCE tablet nominally containing 25 mg EG. […] Blood glucose level was determined for all volunteers at 0 and 1.5 hrs to monitor any hypoglycemic effect. […]
# [3] = white German subjects, cited from earlier work
# [4] = set-up: method as in PMID 25199997; conditions: Japanese subjects, Group 1, n=8, 25 mg empagliflozin; cited from earlier work
# [5] = set-up: method as in PMID 26101175; conditions: Chinese subjects, Group 2, n=9, 25 mg empagliflozin; cited from earlier work
# [6] = set-up: method as in PMID 23859534; conditions: glucuronidation is the major metabolic pathway; cited from earlier work
compound,measurement,setting,value
OC[C@H]1O[C@@H](c2ccc(Cl)c(Cc3ccc(O[C@H]4CCOC4)cc3)c2)[C@H](O)[C@@H](O)[C@@H]1O [Empagliflozin],k el,"[1]; male, human, plasma, n=6, single oral dose, read-out: Elimination rate constant, Mean ± S.D. (% C.V.) (converted)",2.78e-05 s⁻¹
same,half-life,"[1]; male, human, plasma, n=6, single oral dose, read-out: t 1/2, Mean ± S.D. (% C.V.) (converted)",6.1 ± 1.2 h
same,"Cmax, Mean ± S.D. (% C.V.)",[1]; plasma,576 ± 86 (14.93) nMol/L
same,"Cmax, Mean ± S.D. (% C.V.)","[1]; plasma, listed as empagliflozin",576 nmol/L
same,"AUC0-inf, Mean ± S.D. (% C.V.)","[1]; n=6, single oral dose",4103 ± 427 (10.41) nMol.h/L
same,"AUC0−t (12), Mean ± S.D. (% C.V.)","[1]; n=6, single oral dose, 0-12 h",2806 ± 234 (8.34) nMol.h/L
same,"AUC0-inf, Mean ± S.D. (% C.V.)","[1]; n=6, single oral dose, listed as empagliflozin",4103 nmol·h/L
same,blood glucose level of all volunteers,[2],in the normal range
same,"AUC0-inf, Mean","[3]; Group 1, n=6, 25 mg EG",3.83 µM·h
same,"Cmax, Mean","[3]; Group 1, n=6, 25 mg EG",505 nM
same,"AUC0-inf, Mean","[3]; Group 2, n=18, 25 mg EG",4.77 µM·h
same,"Cmax, Mean","[3]; Group 2, n=18, 25 mg EG",610 nM
same,"AUC0-inf, Mean","[3]; Group 3, n=9, 25 mg EG",4.31 µM·h
same,"Cmax, Mean","[3]; Group 3, n=9, 25 mg EG",606 nM
same,"AUC0-inf, Mean","[3]; Group 4, n=9, 25 mg EG",4.99 µM·h
same,"Cmax, Mean","[3]; Group 4, n=9, 25 mg EG",630 nM
same,"AUC0-inf, Mean",[4],7.56 µM·h
same,"Cmax, Mean",[4],1070 nM
same,"AUC0-inf, Mean",[5],7.45 µM·h
same,"Cmax, Mean",[5],1130 nM
same,metabolites detected in human plasma,[6],no major metabolites
